# Tests used:
# [1] = target: Protein kinase C theta type (Homo sapiens) (UniProt Q04759); assay: Inhibition of PRKCQ at 10 uM
# [2] = system: Tyrosine-protein kinase ABL1 (Homo sapiens), P00519 [M351T]; assay: Inhibition of phosphorylated ABL1 M351T mutant at 10 uM; details: values are per cent of control
# [3] = target: Serine/threonine-protein kinase 32A (Homo sapiens) (UniProt Q8WU08); assay: Inhibition of YANK1 at 10 uM; details: values are per cent of control
# [4] = target: Receptor tyrosine-protein kinase erbB-3 (Homo sapiens) (UniProt P21860); assay: Inhibition of ERBB3 at 10 uM; values are per cent of control
# [5] = target: Ribosomal protein S6 kinase alpha-2 (Homo sapiens) (UniProt Q15349); assay: Inhibition of RSK3 N-terminal domain1 at 10 uM
# [6] = target: Serine/threonine-protein kinase tousled-like 2 (Homo sapiens) (UniProt Q86UE8); assay: Inhibition of TLK2 at 10 uM; details: values are per cent of control
# [7] = target: Tyrosine-protein kinase ITK/TSK (Homo sapiens) (UniProt Q08881); assay: Inhibition of ITK at 10 uM; values are per cent of control
# [8] = system: Epidermal growth factor receptor (Homo sapiens), P00533 [G719C]; assay: Inhibition of EGFR G719C mutant at 10 uM; values are per cent of control
# [9] = target: Epidermal growth factor receptor (Homo sapiens) (UniProt P04626+P00533+Q15303+P21860); assay: Inhibition of EGFR S752-I759del mutant at 10 uM; values are per cent of control
# [10] = target: Dual serine/threonine and tyrosine protein kinase (Homo sapiens) (UniProt Q6XUX3); assay: Inhibition of RIPK5 at 10 uM
# [11] = target: Fibroblast growth factor receptor 3 (Homo sapiens) (UniProt P22607); assay: Inhibition of FGFR3 at 10 uM; details: values are per cent of control
# [12] = target: Serine/threonine-protein kinase MRCK alpha (Homo sapiens) (UniProt Q5VT25); assay: Inhibition of MRCKA at 10 uM
# [13] = target: Activin receptor type-1 (Homo sapiens) (UniProt Q04771); assay: Inhibition of ACVR1 at 10 uM; details: values are per cent of control
# [14] = target: Phosphatidylinositol 4-phosphate 5-kinase type-1 gamma (Homo sapiens) (UniProt O60331); assay: Inhibition of PIP5K1C at 10 uM
# BaF3 = assay: Antiproliferative activity against mouse BAF3 cells expressing Bcr-Abl T315I mutant; format: functional, cell-based
# [15] = system: Epidermal growth factor receptor (Homo sapiens), P00533 [L861Q]; assay: Inhibition of EGFR L861Q mutant at 10 uM; values are per cent of control
# [16] = target: MAP kinase-activated protein kinase 5 (Homo sapiens) (UniProt Q8IW41); assay: Inhibition of MAPKAPK5 at 10 uM; details: values are per cent of control
# [17] = target: Serine/threonine-protein kinase STK11 (Homo sapiens) (UniProt Q15831); assay: Inhibition of LKB1 at 10 uM; details: values are per cent of control
# [18] = target: Platelet-derived growth factor receptor alpha (Homo sapiens) (UniProt P16234); assay: Inhibition of PDGFRA at 10 uM; details: values are per cent of control
# [19] = target: Tyrosine-protein kinase HCK (Homo sapiens) (UniProt P08631); assay: Inhibition of HCK at 10 uM; details: values are per cent of control
# [20] = target: Interferon-induced, double-stranded RNA-activated protein kinase (Homo sapiens) (UniProt P19525); assay: Inhibition of PRKR at 10 uM
# [21] = system: Phosphatidylinositol 4,5-bisphosphate 3-kinase catalytic subunit alpha isoform (Homo sapiens), P42336 [M1043I]; assay: Inhibition of PIK3CA M1043I mutant at 10 uM
# [22] = target: Serine/threonine-protein kinase MARK1 (Homo sapiens) (UniProt Q9P0L2); assay: Inhibition of MARK1 at 10 uM; details: values are per cent of control
# [23] = target: Vascular endothelial growth factor receptor 2 (Homo sapiens) (UniProt P35968); assay: Inhibition of VEGFR2 at 10 uM; details: values are per cent of control
# [24] = target: Cyclin-dependent kinase 5 (Homo sapiens) (UniProt Q00535); assay: Inhibition of CDK5 at 10 uM; values are per cent of control
# [25] = system: Serine/threonine-protein kinase B-raf (Homo sapiens), P15056 [V600E]; assay: Inhibition of BRAF V600E mutant at 10 uM; details: values are per cent of control
# [26] = target: Megakaryocyte-associated tyrosine-protein kinase (Homo sapiens) (UniProt P42679); assay: Inhibition of CTK at 10 uM; details: values are per cent of control
# [27] = target: Calcium/calmodulin-dependent protein kinase type 1G (Homo sapiens) (UniProt Q96NX5); assay: Inhibition of CAMK1G at 10 uM; details: values are per cent of control
# [28] = target: NUAK family SNF1-like kinase 2 (Homo sapiens) (UniProt Q9H093); assay: Inhibition of SNARK at 10 uM
# [29] = target: Angiopoietin-1 receptor (Homo sapiens) (UniProt Q02763); assay: Inhibition of TIE2 at 10 uM; values are per cent of control
# [30] = system: Epidermal growth factor receptor (Homo sapiens), P00533 [G719S]; assay: Inhibition of EGFR G719S mutant at 10 uM; values are per cent of control
# [31] = target: Receptor-type tyrosine-protein kinase FLT3 (Homo sapiens) (UniProt P36888); assay: Inhibition of FLT3 at 10 uM; details: values are per cent of control
# [32] = target: Mitogen-activated protein kinase kinase kinase 1 (Homo sapiens) (UniProt Q13233); assay: Inhibition of MAP3K1 at 10 uM; details: values are per cent of control
# [33] = target: Mitogen-activated protein kinase kinase kinase 5 (Homo sapiens) (UniProt Q99683); assay: Inhibition of ASK1 at 10 uM; details: values are per cent of control
# [34] = target: Tyrosine-protein kinase CSK (Homo sapiens) (UniProt P41240); assay: Inhibition of CSK at 10 uM; values are per cent of control
# [35] = target: Serine/threonine-protein kinase PLK1 (Homo sapiens) (UniProt P53350); assay: Inhibition of PLK1 at 10 uM
# [36] = target: BDNF/NT-3 growth factors receptor (Homo sapiens) (UniProt Q16620); assay: Inhibition of TRKB at 10 uM; details: values are per cent of control
# [37] = target: Cyclin-dependent kinase 3 (Homo sapiens) (UniProt Q00526); assay: Inhibition of CDK3 at 10 uM; values are per cent of control
# [38] = target: Mast/stem cell growth factor receptor Kit (Homo sapiens) (UniProt P10721); assay: Inhibition of KIT at 10 uM; details: values are per cent of control
# [39] = target: Ephrin type-A receptor 5 (Homo sapiens) (UniProt P54756); assay: Inhibition of EPHA5 at 10 uM; values are per cent of control
# [40] = target: Tyrosine-protein kinase Fgr (Homo sapiens) (UniProt P09769); assay: Inhibition of FGR at 10 uM; details: values are per cent of control
# Sequence of Serine/threonine-protein kinase MRCK alpha (Homo sapiens) (Q5VT25 whole entry): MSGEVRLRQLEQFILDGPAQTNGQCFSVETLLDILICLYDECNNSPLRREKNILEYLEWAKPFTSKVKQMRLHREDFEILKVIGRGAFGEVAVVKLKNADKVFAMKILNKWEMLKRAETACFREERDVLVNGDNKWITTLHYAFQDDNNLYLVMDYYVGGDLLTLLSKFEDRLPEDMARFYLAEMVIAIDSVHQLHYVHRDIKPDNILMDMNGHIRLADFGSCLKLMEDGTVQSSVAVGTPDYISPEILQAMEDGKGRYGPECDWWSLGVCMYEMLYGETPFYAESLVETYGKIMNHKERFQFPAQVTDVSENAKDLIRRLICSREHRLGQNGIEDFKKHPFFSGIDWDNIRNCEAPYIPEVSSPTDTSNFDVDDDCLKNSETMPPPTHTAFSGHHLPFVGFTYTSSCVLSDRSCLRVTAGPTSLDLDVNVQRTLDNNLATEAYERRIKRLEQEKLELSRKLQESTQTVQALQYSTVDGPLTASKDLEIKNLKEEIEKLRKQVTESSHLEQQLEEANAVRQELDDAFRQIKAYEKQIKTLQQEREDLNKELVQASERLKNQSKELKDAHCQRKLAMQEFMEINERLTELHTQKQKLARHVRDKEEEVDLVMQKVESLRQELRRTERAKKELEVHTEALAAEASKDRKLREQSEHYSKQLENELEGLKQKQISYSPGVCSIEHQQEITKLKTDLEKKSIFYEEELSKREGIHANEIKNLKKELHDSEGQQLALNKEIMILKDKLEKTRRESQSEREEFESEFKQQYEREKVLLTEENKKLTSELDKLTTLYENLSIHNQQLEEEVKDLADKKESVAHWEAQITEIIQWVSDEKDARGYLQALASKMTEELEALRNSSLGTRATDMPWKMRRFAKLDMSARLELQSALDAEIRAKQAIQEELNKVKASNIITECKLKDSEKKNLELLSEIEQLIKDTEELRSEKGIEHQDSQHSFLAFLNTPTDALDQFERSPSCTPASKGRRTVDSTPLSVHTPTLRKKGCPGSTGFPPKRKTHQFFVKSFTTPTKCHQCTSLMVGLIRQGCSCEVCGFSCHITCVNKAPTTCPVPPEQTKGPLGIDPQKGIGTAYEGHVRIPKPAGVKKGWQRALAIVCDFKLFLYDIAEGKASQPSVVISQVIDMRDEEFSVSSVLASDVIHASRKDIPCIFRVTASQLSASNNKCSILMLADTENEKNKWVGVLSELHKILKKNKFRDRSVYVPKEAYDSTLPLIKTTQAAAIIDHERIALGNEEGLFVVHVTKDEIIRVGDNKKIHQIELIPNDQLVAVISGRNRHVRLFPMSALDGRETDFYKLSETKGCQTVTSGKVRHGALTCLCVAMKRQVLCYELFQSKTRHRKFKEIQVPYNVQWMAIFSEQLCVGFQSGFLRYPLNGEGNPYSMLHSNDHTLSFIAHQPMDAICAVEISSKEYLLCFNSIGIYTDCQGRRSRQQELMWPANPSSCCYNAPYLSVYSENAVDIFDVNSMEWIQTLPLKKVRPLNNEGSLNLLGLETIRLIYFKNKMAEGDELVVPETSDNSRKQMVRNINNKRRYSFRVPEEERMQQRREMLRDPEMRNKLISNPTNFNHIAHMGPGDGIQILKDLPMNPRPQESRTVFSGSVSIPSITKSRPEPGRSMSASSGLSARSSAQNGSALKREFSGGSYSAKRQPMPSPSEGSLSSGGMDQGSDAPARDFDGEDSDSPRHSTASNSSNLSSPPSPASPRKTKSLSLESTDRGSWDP
# Sequence of Megakaryocyte-associated tyrosine-protein kinase (Homo sapiens) (P42679 whole entry): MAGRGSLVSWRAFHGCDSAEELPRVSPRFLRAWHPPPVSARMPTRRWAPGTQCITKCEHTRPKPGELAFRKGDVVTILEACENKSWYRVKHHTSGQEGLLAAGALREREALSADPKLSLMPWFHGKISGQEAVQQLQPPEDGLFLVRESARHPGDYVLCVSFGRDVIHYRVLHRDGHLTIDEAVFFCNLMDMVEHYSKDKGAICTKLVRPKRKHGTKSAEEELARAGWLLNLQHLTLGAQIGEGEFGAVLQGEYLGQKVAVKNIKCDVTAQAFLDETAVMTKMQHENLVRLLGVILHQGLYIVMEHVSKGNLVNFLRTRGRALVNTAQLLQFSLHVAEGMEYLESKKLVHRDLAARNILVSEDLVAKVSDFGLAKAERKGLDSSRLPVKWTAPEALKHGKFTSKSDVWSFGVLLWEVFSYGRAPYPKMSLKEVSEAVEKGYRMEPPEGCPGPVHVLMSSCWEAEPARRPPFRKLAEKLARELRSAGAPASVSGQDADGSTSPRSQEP
# Sequence of Calcium/calmodulin-dependent protein kinase type 1G (Homo sapiens) (Q96NX5 whole entry): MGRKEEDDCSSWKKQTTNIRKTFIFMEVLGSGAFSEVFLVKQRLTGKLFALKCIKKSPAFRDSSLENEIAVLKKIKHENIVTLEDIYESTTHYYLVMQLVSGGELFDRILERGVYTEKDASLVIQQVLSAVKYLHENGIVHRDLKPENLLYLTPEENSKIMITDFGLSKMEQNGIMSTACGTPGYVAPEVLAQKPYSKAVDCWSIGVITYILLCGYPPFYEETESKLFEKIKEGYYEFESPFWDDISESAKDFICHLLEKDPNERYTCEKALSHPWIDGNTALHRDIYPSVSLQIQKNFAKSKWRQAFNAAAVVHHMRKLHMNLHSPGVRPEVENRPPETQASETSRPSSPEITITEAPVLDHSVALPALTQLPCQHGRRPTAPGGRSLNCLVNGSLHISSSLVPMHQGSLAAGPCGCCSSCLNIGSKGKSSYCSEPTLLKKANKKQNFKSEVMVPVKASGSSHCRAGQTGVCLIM
# Sequence of Serine/threonine-protein kinase STK11 (Homo sapiens) (Q15831 whole entry): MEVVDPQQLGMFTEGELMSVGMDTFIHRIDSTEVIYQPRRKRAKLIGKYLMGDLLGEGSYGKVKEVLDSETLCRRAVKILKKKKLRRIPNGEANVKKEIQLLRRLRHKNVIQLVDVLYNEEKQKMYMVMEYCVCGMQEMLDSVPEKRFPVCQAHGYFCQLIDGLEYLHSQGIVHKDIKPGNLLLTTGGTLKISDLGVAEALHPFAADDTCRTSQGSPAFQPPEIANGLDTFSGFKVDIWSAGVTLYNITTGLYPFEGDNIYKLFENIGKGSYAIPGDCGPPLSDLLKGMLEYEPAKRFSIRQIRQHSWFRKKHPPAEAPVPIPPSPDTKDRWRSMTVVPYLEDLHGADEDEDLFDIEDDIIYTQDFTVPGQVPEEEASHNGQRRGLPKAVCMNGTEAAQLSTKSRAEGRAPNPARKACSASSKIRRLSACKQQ
# Sequence of Platelet-derived growth factor receptor alpha (Homo sapiens) (P16234 whole entry): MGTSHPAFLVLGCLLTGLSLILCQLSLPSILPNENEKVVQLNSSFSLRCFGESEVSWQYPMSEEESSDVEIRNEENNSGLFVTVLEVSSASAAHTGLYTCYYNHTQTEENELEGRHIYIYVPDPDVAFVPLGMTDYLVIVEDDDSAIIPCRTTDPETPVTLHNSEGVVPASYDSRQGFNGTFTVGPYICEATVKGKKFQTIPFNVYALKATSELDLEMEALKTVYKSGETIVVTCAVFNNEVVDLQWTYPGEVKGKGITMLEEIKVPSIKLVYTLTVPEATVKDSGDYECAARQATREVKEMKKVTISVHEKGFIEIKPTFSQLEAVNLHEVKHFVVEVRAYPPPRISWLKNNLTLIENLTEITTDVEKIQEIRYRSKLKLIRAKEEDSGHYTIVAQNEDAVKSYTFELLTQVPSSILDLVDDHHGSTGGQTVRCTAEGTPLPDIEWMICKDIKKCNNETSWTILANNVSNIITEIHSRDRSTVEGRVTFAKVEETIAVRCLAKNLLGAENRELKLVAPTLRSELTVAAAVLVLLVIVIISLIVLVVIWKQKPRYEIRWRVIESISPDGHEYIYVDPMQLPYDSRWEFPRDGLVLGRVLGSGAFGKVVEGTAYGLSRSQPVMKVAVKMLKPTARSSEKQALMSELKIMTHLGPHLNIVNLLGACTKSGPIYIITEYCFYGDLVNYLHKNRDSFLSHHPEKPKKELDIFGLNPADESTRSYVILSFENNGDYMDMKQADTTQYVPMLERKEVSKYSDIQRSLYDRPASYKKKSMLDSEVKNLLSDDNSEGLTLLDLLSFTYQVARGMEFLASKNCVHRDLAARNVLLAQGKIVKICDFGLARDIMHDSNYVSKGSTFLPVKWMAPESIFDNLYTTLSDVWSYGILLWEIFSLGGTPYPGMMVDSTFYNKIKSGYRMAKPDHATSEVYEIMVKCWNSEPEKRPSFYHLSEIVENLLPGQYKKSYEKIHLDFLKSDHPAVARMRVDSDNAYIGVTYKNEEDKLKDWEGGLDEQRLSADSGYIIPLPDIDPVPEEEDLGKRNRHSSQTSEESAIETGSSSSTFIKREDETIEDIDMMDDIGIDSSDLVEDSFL
# Sequence of Serine/threonine-protein kinase 32A (Homo sapiens) (Q8WU08 whole entry): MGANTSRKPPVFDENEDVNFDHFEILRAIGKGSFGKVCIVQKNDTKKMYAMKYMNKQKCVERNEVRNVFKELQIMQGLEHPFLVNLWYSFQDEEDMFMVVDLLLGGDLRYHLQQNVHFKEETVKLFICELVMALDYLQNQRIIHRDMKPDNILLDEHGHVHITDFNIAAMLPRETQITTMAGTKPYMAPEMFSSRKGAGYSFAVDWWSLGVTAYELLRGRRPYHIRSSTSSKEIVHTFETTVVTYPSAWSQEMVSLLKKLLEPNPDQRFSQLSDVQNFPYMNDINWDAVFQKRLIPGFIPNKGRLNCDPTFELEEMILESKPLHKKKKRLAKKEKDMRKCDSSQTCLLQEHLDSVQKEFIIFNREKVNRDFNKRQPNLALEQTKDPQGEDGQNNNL
# Sequence of Cyclin-dependent kinase 3 (Homo sapiens) (Q00526 whole entry, looked up): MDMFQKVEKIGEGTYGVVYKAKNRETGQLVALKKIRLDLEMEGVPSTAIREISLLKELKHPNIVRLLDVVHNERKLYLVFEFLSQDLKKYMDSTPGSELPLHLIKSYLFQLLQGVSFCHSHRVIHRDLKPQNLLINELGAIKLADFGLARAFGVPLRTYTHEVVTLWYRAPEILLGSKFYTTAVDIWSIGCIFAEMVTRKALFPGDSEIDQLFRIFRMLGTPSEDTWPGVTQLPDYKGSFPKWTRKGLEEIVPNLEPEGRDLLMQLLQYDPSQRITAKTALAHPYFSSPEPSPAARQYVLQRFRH
compound,measurement,setting,value
CCN1CCN(Cc2ccc(NC(=O)c3ccc(C)c(C#Cc4cnc5[nH]ccc5c4)c3)cc2C(F)(F)F)CC1,inhibition,[1],36%
same,"residual binding, % of control",[2],1.1%
same,"residual binding, % of control",[3],98%
same,"level, % of control",[4],89%
same,inhibition,[5],0.7%
same,"residual binding, % of control",[6],100%
same,"level, % of control",[7],2.2%
same,"level, % of control",[8],0%
same,"level, % of control",[9],0.75%
same,inhibition,[10],8.2%
same,"residual binding, % of control",[11],0.15%
same,inhibition,[12],73%
same,"residual binding, % of control",[13],100%
same,inhibition,[14],100%
same,EC50,BaF3,80 nM
same,"level, % of control",[15],0%
same,"residual binding, % of control",[16],98%
same,"residual binding, % of control",[17],60%
same,"residual binding, % of control",[18],0%
same,"residual binding, % of control",[19],0.15%
same,inhibition,[20],54%
same,inhibition,[21],100%
same,"residual binding, % of control",[22],100%
same,"residual binding, % of control",[23],0.35%
same,"level, % of control",[24],24%
same,"residual binding, % of control",[25],0.1%
same,"residual binding, % of control",[26],45%
same,"residual binding, % of control",[27],92%
same,inhibition,[28],84%
same,% of control,[29],0%
same,"level, % of control",[30],0.15%
same,"residual binding, % of control",[31],0.15%
same,"residual binding, % of control",[32],96%
same,"residual binding, % of control",[33],24%
same,"level, % of control",[34],0.1%
same,inhibition,[35],56%
same,"residual binding, % of control",[36],2%
same,"level, % of control",[37],32%
same,"residual binding, % of control",[38],0%
same,"level, % of control",[39],0.85%
same,"residual binding, % of control",[40],0.15%
CCN1CCN(Cc2ccc(NC(=O)c3ccc(C)c(C#Cc4cccnc4)c3)cc2C(F)(F)F)CC1,inhibition,[1],55%
same,"residual binding, % of control",[2],2.6%
same,"residual binding, % of control",[3],81%
same,"level, % of control",[4],100%
same,inhibition,[5],9.5%
same,"residual binding, % of control",[6],100%
same,"level, % of control",[7],44%
same,"level, % of control",[8],0.75%
same,"level, % of control",[9],0.9%
same,inhibition,[10],27%
same,"residual binding, % of control",[11],0.3%
same,inhibition,[12],87%
same,"residual binding, % of control",[13],100%
same,inhibition,[14],90%
same,EC50,BaF3,92 nM
same,"level, % of control",[15],0.2%
same,"residual binding, % of control",[16],95%
same,"residual binding, % of control",[17],96%
same,"residual binding, % of control",[18],0%
same,"residual binding, % of control",[19],0.05%
same,inhibition,[20],66%
same,inhibition,[21],83%
same,"residual binding, % of control",[22],83%
same,"residual binding, % of control",[23],0.25%
same,"level, % of control",[24],10%
same,"residual binding, % of control",[25],0.05%
same,"residual binding, % of control",[26],35%
same,"residual binding, % of control",[27],100%
same,inhibition,[28],99%
same,% of control,[29],0.05%
same,"level, % of control",[30],2.4%
same,"residual binding, % of control",[31],0.25%
same,"residual binding, % of control",[32],94%
same,"residual binding, % of control",[33],100%
same,"level, % of control",[34],0.15%
same,inhibition,[35],58%
same,"residual binding, % of control",[36],1.6%
same,"level, % of control",[37],24%
same,"residual binding, % of control",[38],0%
same,"level, % of control",[39],1.2%
same,"residual binding, % of control",[40],0%

# Reference: ChEMBL document CHEMBL1177794, “Broad spectrum alkynyl inhibitors of T315I Bcr-Abl” (Bioorg Med Chem Lett, 2010)
